Patent US20260022116A1, “IMIDAZOPYRIDINE COMPOUNDS, PREPARATION THEREOF AND THERAPEUTIC USES THEREOF” (SANOFI, priority 2022, published 2026)
Where two headings read alike, the source gives them in different places.

How the values were obtained:
[1] = target: T1, ERK5 (Homo sapiens, UniProt Q13164)
Target sequence in this assay (Q13164 55-347 limits assumed): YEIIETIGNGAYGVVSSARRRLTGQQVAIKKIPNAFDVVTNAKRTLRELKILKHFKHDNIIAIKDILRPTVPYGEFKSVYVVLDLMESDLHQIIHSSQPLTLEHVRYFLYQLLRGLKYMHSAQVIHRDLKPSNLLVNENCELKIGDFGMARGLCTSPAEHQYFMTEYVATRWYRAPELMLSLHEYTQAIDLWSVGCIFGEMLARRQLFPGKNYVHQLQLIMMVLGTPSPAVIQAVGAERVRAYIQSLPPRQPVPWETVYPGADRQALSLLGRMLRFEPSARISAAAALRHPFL
Protocol: (§1) Two assays were performed to assess the ERK5 inhibitory activity of compounds of the Examples, a cell-based assay and a cell-free biochemical assay.
(§2) An assay was performed to measure the capacity of each compound to inhibit ERK5 enzymatic activity. Compound potency was evaluated by Time-Resolved Forster Resonance Energy Transfer (FRET system). […] A mixture of 1 mM ATP and 1 μM biotinylated synthetic peptide was added (Biosyntan GmbH). This synthetic peptide represents amino acids 30-52 of Eukaryotic translation initiation factor 4E-binding protein 1 (see, e.g., the sequence under accession No. NP_004086.1) biotinylated at the N-terminus.

[2] = target: T1, ERK5; assay: cell-based
Target sequence in this assay (Q13164 whole entry): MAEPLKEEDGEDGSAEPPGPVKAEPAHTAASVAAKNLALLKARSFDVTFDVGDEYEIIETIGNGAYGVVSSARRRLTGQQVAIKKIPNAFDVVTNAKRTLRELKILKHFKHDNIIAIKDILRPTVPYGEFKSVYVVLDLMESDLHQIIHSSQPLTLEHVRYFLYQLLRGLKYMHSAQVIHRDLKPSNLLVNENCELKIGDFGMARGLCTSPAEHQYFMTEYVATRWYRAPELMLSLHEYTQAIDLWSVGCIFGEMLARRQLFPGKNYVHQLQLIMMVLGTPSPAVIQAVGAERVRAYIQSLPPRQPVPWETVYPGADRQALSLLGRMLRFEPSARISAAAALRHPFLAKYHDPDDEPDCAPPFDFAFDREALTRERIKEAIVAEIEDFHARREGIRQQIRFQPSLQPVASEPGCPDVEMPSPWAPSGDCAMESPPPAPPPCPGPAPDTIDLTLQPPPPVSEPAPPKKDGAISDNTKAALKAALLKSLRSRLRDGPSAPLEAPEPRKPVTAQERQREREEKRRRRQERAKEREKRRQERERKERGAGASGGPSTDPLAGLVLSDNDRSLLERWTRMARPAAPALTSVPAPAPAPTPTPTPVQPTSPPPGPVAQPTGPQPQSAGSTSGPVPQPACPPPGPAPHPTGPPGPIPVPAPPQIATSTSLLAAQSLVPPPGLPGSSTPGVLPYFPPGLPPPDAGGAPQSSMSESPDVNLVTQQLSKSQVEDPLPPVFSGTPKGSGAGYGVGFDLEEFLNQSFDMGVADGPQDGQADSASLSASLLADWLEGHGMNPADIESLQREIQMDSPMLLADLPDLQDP
Protocol: as §1
(§3) The renal cancer cell line SN12C was transduced by a lentivirus pGreenFire1 MEF2 EF1 Neo (ref TR030VA-N) from SBI using standard infection protocol. pGreenFire1 MEF2 EF1 Neo allows the expression of luciferase gene under the control of minimal promoter with MEF2 transcriptional response elements. Cells harboring the reporter construct were selected by geneticin treatment. The selected cells were then transposed by a piggyback based plasmid pCM4007 allowing the expression of constitutively activated MEK5DD under control of TREG3 promoter, a doxycycline regulated promoter. Transposed cells were selected by puromycin treatment. Upon doxycycline treatment (1 μg/ml) MEK5DD was expressed. MEK5DD activates ERK5 that phosphorylates MEF2C protein. Activated MEF2C protein can bind to its transcriptional response elements. Then the luciferase is expressed. In a 96-well plate (96F nuncleon ref137101 thermofisher), 50,000 cells were inoculated in 142.5 μl of RPMI medium containing 10% fetal calf serum, 1% glutamine, and 1 μg/ml doxycycline. […] The luciferase activity was measured using the Kit Bright Glo Luminescent Cell Assay Cat E2610 (Promega) according to the manufacturer's protocol. Luminescence was determined using 0.2 second reading/well using a Tecan SPARK. IC50 values were calculated using XLFIT5 for Microsoft Excel using method 205.

[3] = target: T1, ERK5; remark: listed apart in the source
Target sequence in this assay (Q13164 whole entry): as above
Protocol: as §1, §3

[4] = target: T1, ERK5; assay: biochemical
Target sequence in this assay (Q13164 55-347 limits assumed): as the sequence (Q13164 55-347 limits assumed) above
Protocol: as §1, §2

Compound	IC50 [1] [nM]	IC50 [2] [nM]	IC50 [3] [nM]	IC50 [4] [nM]
CN1CCC(c2nc3c(C4CCN(C(=O)c5ccc(OC(F)(F)F)cc5)CC4)ccnc3[nH]2)C1 (single isomer, unassigned) [Example 25, [4-[2-(1-Methylpyrrolidin-3-yl)-3H-imidazo[4,5-b]pyridin-7-yl]-1-piperidyl]-[4-(trifluoromethoxy)phenyl]methanone]	148	179	–	–
COC12CC(c3nc4c(C5CCN(C(=O)c6ccc(OC(F)(F)F)cc6N)CC5)c(F)cnc4[nH]3)(C1)C2 [Example 428, [2-amino-4-(trifluoromethoxy)phenyl]-[4-[6-fluoro-2-(3-methoxy-1-bicyclo[1.1.1]pentanyl)-3H-imidazo[4,5-b]pyridin-7-yl]-1-piperidyl]methanone]	–	–	5	28
